Consider one molecule from US20240226076A1, “Inhibitors of Tryptases and Their Use in Treating Allergies” (The Board of Trustees of the Leland Stanford Junior …, priority 2021, published 2024).

One data set has as its target T1, KLKB1 (Homo sapiens, UniProt P03952).
T1 construct: purchased Reaction Biology Corp
Description: Protease activity array (Reaction Biology Corp), KLKB1. The class given is biochemical. On the procedure:
(§1) Avoralstat can inhibit Tryptase-b2 and -g1 as well as it inhibits KLKB1 in vitro. Avoralstat was assessed for inhibition against a panel of recombinant proteases including 2 Tryptases (Tryptase-b2 and -g1) and KLKB1 by commercial services from Reaction Biology Corp. The Reaction Biology Corp profile tested in a 10-dose IC50, with a dose range from 38 pM to 10 μM, against 70 proteases in FIG. 1E.
(§2) Protease activity array. […] The protease activities were monitored as a time-course measurement of the increase in fluorescence signal from fluorescently labeled peptide substrate, and initial linear portion of slope (signal/min) was analyzed.

For data set [1] the following is noted: oral drug, phase III clinical trials for hereditary angioedema; cited from earlier work.
Another data set has as its target T2, Kallikrein-14 (Homo sapiens, UniProt Q9P0G3).
T2 construct: purchased Reaction Biology Corp
T2 sequence (Q9P0G3 25-251): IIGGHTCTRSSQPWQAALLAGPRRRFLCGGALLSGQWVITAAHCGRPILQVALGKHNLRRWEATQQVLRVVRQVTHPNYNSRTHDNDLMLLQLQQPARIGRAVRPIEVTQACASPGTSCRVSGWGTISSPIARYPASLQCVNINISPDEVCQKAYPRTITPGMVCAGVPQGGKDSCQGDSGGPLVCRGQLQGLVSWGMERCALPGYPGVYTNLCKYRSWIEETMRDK
Nature of the data set: Protease activity array (Reaction Biology Corp), Kallikrein-14. The data set is classed as biochemical. Conditions: recombinant protease, 10-dose IC50, fluorescently labeled peptide substrate. The protocol: as §1, §2

In the next data set the target is T3, Tryptase-b2 (Homo sapiens, UniProt P20231).
T3 construct: purchased Reaction Biology Corp
Nature of the data set: Protease activity array (Reaction Biology Corp), Tryptase-b2. The data set is classed as biochemical. On the procedure: as §1, §2

Another data set addresses T4, Tryptase-g1 (Homo sapiens, UniProt Q9NRR2).
T4 construct: purchased Reaction Biology Corp
Description: Protease activity array (Reaction Biology Corp), Tryptase-g1. The data set is classed as biochemical. The protocol:
as §1, §2

The next data set addresses T5, Kallikrein-12 (Homo sapiens, UniProt Q9UKR0).
T5 construct: purchased Reaction Biology Corp
T5 sequence (Q9UKR0 18-248): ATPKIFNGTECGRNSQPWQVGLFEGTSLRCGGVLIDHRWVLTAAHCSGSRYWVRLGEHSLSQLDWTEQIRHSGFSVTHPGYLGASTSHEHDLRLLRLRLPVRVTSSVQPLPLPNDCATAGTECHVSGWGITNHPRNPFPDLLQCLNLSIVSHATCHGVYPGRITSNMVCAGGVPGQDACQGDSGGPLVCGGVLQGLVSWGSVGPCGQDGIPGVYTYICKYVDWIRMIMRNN
Description: Protease activity array (Reaction Biology Corp), Kallikrein-12. The data set is classed as biochemical. Conditions: recombinant protease, 10-dose IC50, fluorescently labeled peptide substrate. On the procedure:
as §1, §2

T1 sequence (P03952 20-638): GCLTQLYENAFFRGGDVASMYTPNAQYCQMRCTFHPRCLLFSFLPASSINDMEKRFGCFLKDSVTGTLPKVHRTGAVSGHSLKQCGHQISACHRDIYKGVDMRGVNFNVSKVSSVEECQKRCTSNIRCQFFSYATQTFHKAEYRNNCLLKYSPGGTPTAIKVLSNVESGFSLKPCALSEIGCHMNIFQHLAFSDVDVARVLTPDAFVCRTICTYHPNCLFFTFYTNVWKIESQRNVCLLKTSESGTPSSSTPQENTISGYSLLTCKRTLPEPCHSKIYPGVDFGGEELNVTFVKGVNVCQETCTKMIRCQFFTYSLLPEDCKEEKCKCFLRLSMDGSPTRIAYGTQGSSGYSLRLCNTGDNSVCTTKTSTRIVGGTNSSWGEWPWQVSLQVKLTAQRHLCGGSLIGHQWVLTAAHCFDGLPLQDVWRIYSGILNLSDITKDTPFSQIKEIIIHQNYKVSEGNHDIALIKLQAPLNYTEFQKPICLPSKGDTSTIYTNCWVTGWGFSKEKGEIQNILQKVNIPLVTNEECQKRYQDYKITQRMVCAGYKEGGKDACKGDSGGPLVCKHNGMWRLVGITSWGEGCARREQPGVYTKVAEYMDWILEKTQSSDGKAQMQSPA
T3 sequence (P20231 31-275): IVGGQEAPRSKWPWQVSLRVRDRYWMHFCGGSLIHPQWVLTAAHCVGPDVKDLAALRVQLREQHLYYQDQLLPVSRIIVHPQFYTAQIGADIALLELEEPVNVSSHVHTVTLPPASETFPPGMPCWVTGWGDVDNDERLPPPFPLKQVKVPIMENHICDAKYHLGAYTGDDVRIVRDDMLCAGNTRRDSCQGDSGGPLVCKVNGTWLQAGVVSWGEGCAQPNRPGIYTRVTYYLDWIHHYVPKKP
T4 sequence (Q9NRR2 20-321): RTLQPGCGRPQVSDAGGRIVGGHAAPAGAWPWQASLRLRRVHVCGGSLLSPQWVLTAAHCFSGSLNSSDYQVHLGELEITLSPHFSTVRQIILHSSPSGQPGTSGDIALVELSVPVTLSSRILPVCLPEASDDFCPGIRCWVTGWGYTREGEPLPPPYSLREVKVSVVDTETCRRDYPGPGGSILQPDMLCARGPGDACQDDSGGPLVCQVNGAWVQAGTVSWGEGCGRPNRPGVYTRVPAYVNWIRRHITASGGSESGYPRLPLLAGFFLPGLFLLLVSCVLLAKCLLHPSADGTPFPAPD

For `C=Cc1cc(C(=O)Nc2ccc(C(=N)N)cc2)c(-c2ccc(C(=O)NCC3CC3)nc2C(=O)O)cc1OC` [Avoralstat], the half-maximal inhibitory concentration (IC50) (commonly the concentration needed to halve the response being measured) against KLKB1 was found to be 0.13 nM; on Tryptase-b2, 0.99 nM; against Tryptase-g1, 0.93 nM. In addition, the clinical safety entry in data set [1] is “clinically proven to be safe”. In addition, the inhibition entry on Kallikrein-14 and at Kallikrein-12 was “sub-nanomolar inhibition” each time.
